Experimental data from patent US20120095019A1 (priority 2010, published 2012).
Several values for one entry are separate records, joined by “and”; a condition that tells them apart may be missing. Equal entries are not always repeated. Entries after “also recorded” stand apart in the source; their conditions may differ.

Assays:
[1] = 3-period crossover study of betrixaban and digoxin alone and in combination for 7 days in healthy subjects; format: in vivo, human
Description: For each period, subjects reported to the clinical research unit on the day prior to Day 1 and remained there until Day 8 (at least until the last blood sample collection). The total duration of the study for each subject was 14 weeks: up to 4 weeks predose, approximately 1 week in the study unit on 3 occasions (with each treatment period separated by an approximate 2-week washout [i.e., 12 to 14 days]), and up to 3 weeks after the last dose until the Termination Visit. Serial blood samples and interval urine collections were obtained over the last dosing interval (Day 7 to 8) during each study period. Routine safety laboratory data was obtained at baseline during and after drug administration; additional safety laboratory and clinical data were collected.
All doses were taken under fasting conditions (no food starting from the midnight before dosing and continuing until 2 hours postdose).
Safety assessments included electrocardiogram (ECG) intervals, vital signs, laboratory parameters, and adverse events (AEs).
Mean and individual concentration-versus-time curves were plotted. […]
The 90% confidence intervals (CIs) for the difference in least squares means (test-reference, where test=drugs in combination and reference=drugs alone) was calculated for each parameter. […]

[2] = 2-way crossover study of single-dose betrixaban alone and following 5 days of ketoconazole in healthy subjects (plasma/urine PK, safety); format: in vivo, human; conditions: for Cmax: ketoconazole Cmax
Description: Blood and urine samples were obtained at specific time intervals after dosing for pharmacokinetic evaluations.
For each subject, the total duration of the study was up to 11 weeks (4 weeks predose, 1 week in the study unit on 2 occasions separated by a 12- to 14-day washout period, and 3 weeks after the last dose until the termination visit).
Safety was monitored by adverse event monitoring, clinical laboratory testing (hematology, serum chemistry, and urinalysis), vital sign measurements (oral temperature, respiratory rate, pulse rate, and systolic and diastolic blood pressure), electrocardiograms, and physical examinations.

effect of co-administration of betrixaban on digoxin PK ([1]; 7 days)	Tmax ([1]; human, plasma, oral, digoxin median tmax, second value of pair (digoxin alone by order)) [h]	Structure (SMILES)	ketoconazole CL/F, mean (SD) ([2]; Day 1)	ketoconazole trough concentration, least squares geometric mean ([2]; Day 1 12 hours) [ng/mL]	ketoconazole trough concentration, least squares geometric mean ([2]; Day 1 predose) [ng/mL]	ketoconazole CL/F, mean (SD) ([2]; Day-1)	ketoconazole trough concentration, least squares geometric mean ([2]; Day-1 predose) [ng/mL]	increased exposure of ketoconazole [Cmax and AUC(0-12)] when given with betrixaban ([2]; human, in vivo)	Tmax ([2]; human, plasma, oral) [h]	Tmax ([2]; human, plasma, oral, 200 mg) [h]	AUC(0-t) ([2]; human, plasma, oral, 200 mg, ketoconazole AUC(0-12), geometric LS mean, Treatment R: ketoconazole 200 mg alone) [ng·h/mL]	Cmax ([2]; human, plasma, oral, 200 mg, geometric LS mean, Treatment R: ketoconazole 200 mg alone) [ng/mL]	Cmax ([2]; human, plasma, oral, 200 mg, mean (SD), Day-1) [ng/mL]	AUC(0-t) ([2]; human, plasma, oral, 200 mg, ketoconazole plasma AUC(0-12), mean (SD), Day-1) [ng·h/mL]	concentration at 12 h ([2]; human, plasma, oral, 200 mg, Day-1 12 hours) [ng/mL]	AUC(0-t) ([2]; human, plasma, oral, ketoconazole AUC(0-12), geometric LS mean, Treatment T: ketoconazole 200 mg co-administered with 40-mg betrixaban) [ng·h/mL]	Cmax ([2]; human, plasma, oral, geometric LS mean, Treatment T: ketoconazole 200 mg co-administered with 40-mg betrixaban) [ng/mL]	Cmax ([2]; human, plasma, oral, mean (SD), Day 1 (day of betrixaban administration)) [ng/mL]
no impact; also recorded: no effect	1.01	C[C@H]1O[C@@H](O[C@H]2[C@@H](O)C[C@H](O[C@H]3[C@@H](O)C[C@H](O[C@H]4CC[C@@]5(C)[C@H](CC[C@@H]6[C@@H]5C[C@@H](O)[C@]5(C)[C@@H](C7=CC(=O)OC7)CC[C@]65O)C4)O[C@@H]3C)O[C@@H]2C)C[C@H](O)[C@@H]1O [digoxin]																
		CC(=O)N1CCN(c2ccc(OCC3COC(Cn4ccnc4)(c4ccc(Cl)cc4Cl)O3)cc2)CC1 (stereo not drawn) [ketoconazole]	5.717 (2.373) L/h	769	1030	7.954 (7.110) L/h	1250	21-22% and ~20%	2	2	30900	5260	5900	35300	697	37300	6420	6620
